Results published in US12109315B2, “Method for treating Blastocystis infection” (Imam Abdulrahman Bin Faisal University, priority 2022, dated 2024).
Read-outs that look alike come from different tables or passages of the source.

Assays:
Blastocystis cysts = test: organism not typed; type: cell-based; conditions: read-out: Reduction in the percentage of viability of Blastocystis cysts
Excerpt: Suspensions of cultured Blastocystis from symptomatic patients were used for evaluating biological activities of the formulated nanocomposites. Blastocystis were obtained from the El-Badry Lab where ethically approved by the Deanship of Scientific Research and Postgraduate Studies of Imam Abdulrahman Bin Faisal University under the Institutional Review Board (IRB) number (IRB #2021-01-009).
Blastocystis were sub-cultured using fresh Jones' medium enriched with 10% horse serum according to Jones to get rid of stool debris [Jones, W. Ann Trop Med Parasitol., 1946, 40, 130-140; & Zman, V., and Khan, K. Southt Asian J Trop Med Public Health, 1994, 25, 792-793, each of which is incorporated herein by reference in its entirety]. Cultures with vacuolar forms of Blastocystis greater than 10^6 were used for evaluating biological activities of the formulated nanocomposites.
Suspension of cultured Blastocytis cysts, in logarithmic growth phase of 10^6/ml, were inoculated in sets of culture tubes with Jones' culture media. Haemocytometer counting chamber was used to count the number of Blastocystis cysts. The experiments contained 3 groups as follows:
Group 1 (G1): parasite (negative, not treated) control group, containing only cultured cysts of Blastocystis.
Group 2 (G2): drug (positive) control, containing cultured parasites exposed to 500 μg/ml metronidazole as reference anti-Blastocystis therapy.
Group 3 (G3): nanocomposites tested group, containing cultured parasites exposed to the three nanocomposites. G3 was further divided into subgroups to test three nanocomposites (G3A, G3B and […]) at different concentrations (G3i-iv). Parasites were exposed to increasing concentrations of the three nanocomposites of 100 μg/ml (G3i) 200 μg/ml (G3ii), 500 μg/ml (G3iii) and 800 μg/ml (G3iv) (W/V). All tubes were incubated at 37° C. in humidified CO2 for 48 hours.
All tested nanocomposites for each concentration were prepared by diluting stock solution in appropriate amount of PBS. The volume of each of the experiment tubes was brought to 1 ml with Blastocystis 10^6/ml concentration. All experiments were performed in triplicate [El-Sayed, S. H., et. al., Res J Parasitol., 2017, 12,2, 33-44; Méabed, E. M. H., Phytomedicine, 2018, 1, 43, 158-163; & Mokhtar, A. B., et. al., Int J Environ Res Public Health, 2019, 16, 1555, each of which is incorporated herein by reference in its entirety].
The number of Blastocystis cysts from all cultured tubes included in the experiment were counted under the microscope in haemocytometer counting chamber, and cultured Blastocystis cysts were tested for their viability using Trypan blue solution (0.4%). […] The dead Blastocystis cysts were further confirmed by microscopic detection of cell wall disruption and destruction of internal structures. All cultured tubes were examined for percentage of reduction in growth of Blastocystis cysts each hour for 5 hours then after 24 hours. The minimal lethal concentration (MLC) was determined to be the concentration at which no Blastocystis cysts were observed.

[1] = Drug release study (dialysis membrane, PBS, UV-visible spectroscopy); type: physicochemical; conditions: within 12 h, absence of nanocarrier, PBS pH 5.6, 37° C.
Description: Prior to the study, the dialysis membrane (12 KDa, Sigma Aldrich) was activated and then 15 mg of nanoformulation was dispersed in 25 ml of PBS solution (pH 5.6 and 7.4). The release of antioxidants are studied at 37° C. At regular time interval, 5 ml of solution was withdrawn, and release of antioxidants were measured using UV-visible spectroscopy. The withdrawn solution (5 ml) was replaced with equal volume of fresh PBS solution.
Various concentration of aliquots 5, 10, 15, 20, 25 and 30 μg/ml was prepared with makeup volume to 10 ml using release medium PBS solution (pH=5.6 or 7.4) and calibration curve established against blank at maximum absorption wavelength λmax of 428 nm and 307 nm, respectively. […] The release study was repeated in triplicates.

Row | Compound | inhibition at 500 µg/mL (Blastocystis cysts; 1 h) [%] | inhibition at 500 µg/mL (Blastocystis cysts; 2 h) [%] | inhibition at 500 µg/mL (Blastocystis cysts; 3 h) [%] | inhibition at 500 µg/mL (Blastocystis cysts; 4 h) [%] | inhibition at 500 µg/mL (Blastocystis cysts; 5 h) [%] | inhibition at 500 µg/mL (Blastocystis cysts; 24 h) [%] | maximum release of resveratrol (burst release) [1] [%]
1 | Cc1ncc([N+](=O)[O-])n1CCO [Metronidazole, metronidazole] | 81.7 | 87.7 | 91.3 | 96.3 | 98.7 | 99.3 | –
2 | Oc1ccc(/C=C/c2cc(O)cc(O)c2)cc1 [resveratrol, Resveratrol] | – | – | – | – | – | – | 43
